Measurements as given in patent US20240228468A1, “N-(6-((OCTAHYDROCYCLOPENTA[C]PYRROL-5-YI)AMINO)PYRIDAZIN-3-YL)PHENYL)CARBOXAMIDE AND (6- ((OCTAHYDROCYCLOPENTA[C]PYRROL-5-YL)AMINO)PYRIDAZIN-3-YL)BENZAMIDE DERIVATIVES AS MACHR M4 ANTAGONISTS FOR THE TREATMENT OF NEURODEGENERATIVE DISORDERS” (Vanderbilt University, priority 2021, published 2024).
Read-outs that look alike come from different tables or passages of the source.

Target: T1, Human M4 (Homo sapiens, UniProt P08173)
T1 construct: expressed in transfected cells; host or cells: CHO-K1 (ATCC), co-transfected with chimeric G protein Gqi5
T1 sequence (P08173 1-479): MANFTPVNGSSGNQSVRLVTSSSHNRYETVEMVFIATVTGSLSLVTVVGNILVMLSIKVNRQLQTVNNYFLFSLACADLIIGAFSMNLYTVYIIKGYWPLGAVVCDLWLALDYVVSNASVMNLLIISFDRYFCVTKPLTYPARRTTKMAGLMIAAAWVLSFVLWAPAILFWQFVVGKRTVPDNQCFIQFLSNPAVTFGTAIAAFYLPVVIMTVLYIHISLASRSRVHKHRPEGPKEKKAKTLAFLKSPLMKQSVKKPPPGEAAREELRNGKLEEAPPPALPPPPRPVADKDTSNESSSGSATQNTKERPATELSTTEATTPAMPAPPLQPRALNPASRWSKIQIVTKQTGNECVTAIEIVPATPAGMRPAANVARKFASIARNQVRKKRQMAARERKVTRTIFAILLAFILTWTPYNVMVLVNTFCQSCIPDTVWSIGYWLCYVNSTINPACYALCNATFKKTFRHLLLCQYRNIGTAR
Test: mAChR M4 cell-based functional assay (calcium flux, antagonism of EC80 acetylcholine response)
Details: for IC50: concentration-dependent decrease of the response elicited by an EC80 concentration of acetylcholine
In short: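 CHO-K1 cells stably expressing human M4 with chimeric Gqi5, Fluo-4 loaded; calcium flux read on FDSS. Compound (10-point, 1:3 series) added first, then EC20 acetylcholine at 143 s and EC80 at 268 s. IC50 from concentration-dependent decrease of EC80 response, four-parameter logistic fit.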

[1] = M4/Gqi5/CHO-K1 cells, % ACh maximum at 30 μM, read-out: Human M4 Emin (% ACh maximum at 30 μM)
[2] = CHO-K1, read-out: Human M4 Emin (% ACh maximum at 30 μM)
[3] = M4/Gqi5/CHO-K1 cells, % ACh maximum at 30 μM

| SMILES | remaining activity at 30 µM [1] | IC50 (M4/Gqi5/CHO-K1 cells) | remaining activity at 30 µM [2] | Human M4 Emin (% ACh maximum at 30 μM) [3] |
| --- | --- | --- | --- | --- |
| CNC(=O)c1cccc(-c2ccc(N[C@H]3C[C@@H]4CN(CC5CCOCC5)C[C@@H]4C3)nn2)c1 [Compound A41, N-methyl-3-(6-(((3aR,5s,6aS)-2-((tetrahydro-2H-pyran-4-yl)methyl)octahydrocyclopenta[c]pyrrol-5-yl)amino)pyridazin-3-yl)benzamide] | 5% | 12 nM | – | – |
| CC(=O)Nc1cccc(-c2ccc(N[C@H]3C[C@@H]4CN(CC5CCOCC5)C[C@@H]4C3)nn2)c1 [Compound A29, N-(3-(6-(((3aR,5s,6aS)-2-((tetrahydro-2H-pyran-4-yl)methyl)octahydrocyclopenta[c]pyrrol-5-yl)amino)pyridazin-3-yl)phenyl)acetamide] | 3% | 34 nM | – | – |
| [2H]C1([2H])CC(C([2H])([2H])N2C[C@H]3C[C@H](Nc4ccc(-c5cccc(C(=O)NC)c5)nn4)C[C@H]3C2)CC([2H])([2H])O1 (single isomer, unassigned) [Compound A74] | 4% | 40 nM | – | – |
| O=C(Nc1cc(F)c(F)c(-c2ccc(N[C@H]3C[C@@H]4CN(CC5CCOCC5)C[C@@H]4C3)nn2)c1)C(F)F [Compound A15, N-(3,4-Difluoro-5-(6-(((3aR,5s,6aS)-2-((tetrahydro-2H-pyran-4-yl)methyl)octahydrocyclopenta[c]pyrrol-5-yl)amino)pyridazin-3-yl)phenyl)-2,2-difluoroacetamide] | – | 15 nM | 4% | – |
| O=C(NC1CC1)c1ccc(-c2ccc(N[C@H]3C[C@@H]4CN(CC5CCOCC5)C[C@@H]4C3)nn2)cc1 [Compound A27, N-cyclopropyl-4-(6-(((3aR,5s,6aS)-2-((tetrahydro-2H-pyran-4-yl)methyl)octahydrocyclopenta[c]pyrrol-5-yl)amino)pyridazin-3-yl)benzamide] | 3% | 3.9 nM | – | – |
| CC(=O)Nc1ccc(-c2ccc(N[C@H]3C[C@@H]4CN(Cc5ccccn5)C[C@@H]4C3)nn2)cc1 [Compound A8, N-(4-(6-(((3aR,5s,6aS)-2-(Pyridin-2-ylmethyl)octahydrocyclopenta[c]pyrrol-5-yl)amino)pyridazin-3-yl)phenyl)acetamide] | – | 43 nM | 5% | – |
| CN(C)C(=O)c1ccc(-c2ccc(N[C@H]3C[C@@H]4CN(CC5CCOCC5)C[C@@H]4C3)nn2)c(F)c1 [Compound A37, 3-fluoro-N,N-dimethyl-4-(6-(((3aR,5s,6aS)-2-((tetrahydro-2H-pyran-4-yl)methyl)octahydrocyclopenta[c]pyrrol-5-yl)amino)pyridazin-3-yl)benzamide] | 5% | 14 nM | – | – |
| CCN(CC)C(=O)c1ccc(-c2ccc(N[C@H]3C[C@@H]4CN(CC5CCOCC5)C[C@@H]4C3)nn2)cc1 [Compound A24, N,N-diethyl-4-(6-(((3aR,5s,6aS)-2-((tetrahydro-2H-pyran-4-yl)methyl)octahydrocyclopenta[c]pyrrol-5-yl)amino)pyridazin-3-yl)benzamide] | 4% | 37 nM | – | – |
| O=C(c1cc(F)c(F)c(-c2ccc(N[C@H]3C[C@@H]4CN(CC5CCOCC5)C[C@@H]4C3)nn2)c1)N1CC(F)(F)C1 [Compound A20, (3,4-difluoro-5-(6-(((3aR,5s,6aS)-2-((tetrahydro-2H-pyran-4-yl)methyl)octahydrocyclopenta[c]pyrrol-5-yl)amino)pyridazin-3-yl)phenyl)(3,3-difluoroazetidin-1-yl)methanone] | 4% | 100 nM | – | – |
| CC(=O)Nc1ccc(-c2ccc(N[C@H]3C[C@@H]4CN(Cc5cc(C)n(C)n5)C[C@@H]4C3)nn2)cc1 [Compound A5, N-(4-(6-(((3aR,5s,6aS)-2-((1,5-dimethyl-1H-pyrazol-3-yl)methyl)octahydrocyclopenta[c]pyrrol-5-yl)amino)pyridazin-3-yl)phenyl)acetamide] | 10% | 2300 nM | – | – |
| O=C(Nc1ccc(-c2ccc(N[C@H]3C[C@@H]4CN(CC5CCOCC5)C[C@@H]4C3)nn2)cc1)C1CC1 [Compound A26, N-(4-(6-(((3aR,5s,6aS)-2-((tetrahydro-2H-pyran-4-yl)methyl)octahydrocyclopenta[c]pyrrol-5-yl)amino)pyridazin-3-yl)phenyl)cyclopropanecarboxamide] | 3% | 6.8 nM | – | – |
| [2H]C([2H])(C1CCOCC1)N1C[C@H]2C[C@H](Nc3ccc(-c4ccc(C(=O)NC)cc4)nn3)C[C@H]2C1 (single isomer, unassigned) [Compound A64] | 5% | 16 nM | – | – |
| [2H]C([2H])(C1CCOCC1)N1C[C@H]2C[C@H](Nc3ccc(-c4ccccc4NC(C)=O)nn3)C[C@H]2C1 [Compound B2, N-(2-(6-(((3aR,5s,6aS)-2-((tetrahydro-2H-pyran-4-yl)methyl-d2)octahydrocyclopenta [c]pyrrol-5-yl)amino)pyridazin-3-yl)phenyl)acetamide] | – | 58 nM | – | 3% |
| [2H]C([2H])(C1CCOCC1)N1C[C@H]2C[C@H](Nc3ccc(-c4ccc(F)c(C(=O)NC)c4)nn3)C[C@H]2C1 [Compound A73, 2-fluoro-N-methyl-5-(6-(((3aR,5s,6aS)-2-((tetrahydro-2H-pyran-4-yl)methyl-d2)octahydrocyclopenta[c]pyrrol-5-yl)amino)pyridazin-3-yl)benzamide] | 7% | 310 nM | – | – |
| CCC(=O)Nc1cccc(-c2ccc(N[C@H]3C[C@@H]4CN(CC5CCOCC5)C[C@@H]4C3)nn2)c1 [Compound A56, N-(3-(6-(((3aR,5s,6aS)-2-((tetrahydro-2H-pyran-4-yl)methyl)octahydrocyclopenta[c]pyrrol-5-yl)amino)pyridazin-3-yl)phenyl)propionamide] | 4% | 43 nM | – | – |
| CCC(=O)Nc1ccc(-c2ccc(N[C@H]3C[C@@H]4CN(CC5CCOCC5)C[C@@H]4C3)nn2)cc1 [Compound A39, N-(4-(6-(((3aR,5s,6aS)-2-((tetrahydro-2H-pyran-4-yl)methyl)octahydrocyclopenta[c]pyrrol-5-yl)amino)pyridazin-3-yl)phenyl)propionamide] | 3% | 3.1 nM | – | – |
| [2H]C([2H])(C1CCOCC1)N1C[C@H]2C[C@H](Nc3ccc(-c4ccc(NC(C)=O)cc4)nn3)C[C@H]2C1 (single isomer, unassigned) [Compound B1] | – | 0.4 nM | – | 4% |
| O=C(Nc1cc(F)c(F)c(-c2ccc(N[C@H]3C[C@@H]4CN(CC5CCOCC5)C[C@@H]4C3)nn2)c1)C1(F)CC1 [Compound A12, N-(3,4-difluoro-5-(6-(((3aR,5s,6aS)-2-((tetrahydro-2H-pyran-4-yl)methyl)octahydrocyclopenta[c]pyrrol-5-yl)amino)pyridazin-3-yl)phenyl)-1-fluorocyclopropane-1-carboxamide] | 4% | 85 nM | – | – |
